Results reported in patent US12201628B2, “Neuronal modulation” (priority 2013, dated 2025).
“Also recorded” adds a separate entry of the source.

Tests used:
GFP-expressing E. coli = assay: In-vivo E. coli phagocytosis; set-up: species or system mice; conditions: E. coli injected 24 h after VTA activation, analysed 2 h later; vs controls
Experimental: Virus-injected mice were IP treated with CNO. Twenty four hours later, GFP-expressing E. coli (MG165K12; 8×10^8 CFU/mouse) were injected IP. After two hours, the peritoneal lymphocytes were collected by peritoneal lavage. For peritoneal lavage, the mice were sacrificed and their skin was cleaned with 70% ethanol. Then, 5 ml ice-cold PBS containing 1% fetal bovine serum were injected into the peritoneum, followed by gentle massage to allow distribution of the lavage fluid throughout the peritoneal cavity. The fluid was then collected using a 5 ml syringe attached to a 21-gauge needle, and cells were then washed twice in FACS staining buffer (PBS containing 1% bovine serum albumin and 0.05% sodium azide). In order to evaluate the degree of monocyte phagocytosis of the fluorescent bacteria, peritoneal lavage cells were stained with PerCP-conjugated anti-CD11b antibody (M1/70, Biolegend). All samples were analyzed on an LSRFortessa cell analyzer (BD Biosciences, NJ). […]
To determine the effects of VTA activation on antibacterial activity in vivo, the VTA-dopaminergic neurons were activated, and 24 h later injected the mice with GFP-expressing E. coli. Two hours later, lymphocytes were extracted from the peritoneal cavity of the mice and determined by flow cytometry GFP levels; only cells that phagocytized the E. coli could express GFP.

IL-4 and IL-1β = assay: Serum cytokine levels (RayBio antibody array, ELISA); assay type: in vivo, mice; conditions: 24 h after CNO; VTA-activated vs control
Experimental: VTA-activated and control mice were treated with CNO. Twenty four hours later, they were anaesthetized with ketamine/xylazine and their blood was collected by cardiac puncture. The blood was allowed to clot at room temperature for at least 30 minutes. Serum was collected by centrifuging the sample at 400 g for 10 min. The serum samples pooled from each experimental group (VTA-activated group and control group) were analyzed for cytokine and chemokine levels using the RayBio custom G-Series mouse cytokine antibody array kit (RayBiotech; Norcross, GA) according to manufacturer's instructions. The panel included: CD30 ligand, Eotaxin-1, Eotaxin-2, IFN-γ, IL-1α, IL-1β, IL-2, IL-3, IL-4, IL-6, IL-9, IL-10, IL-12 p40/p70, IL-12 p70, IL-13, IL-17A, MIP-1α, MIP-1γ, RANTES and TNFα. Murine IL-4 and IL-1β standard ELISA kits (PeproTech; Rocky Hill, NJ) were used as a quantitative validation of the IL-4 and IL-1β levels measured with the antibody array kit.

[1] = tested on: DREADDs (hM3D(Gq)) expressing VTA dopaminergic neurons; assay: C-fos staining of VTA neurons after CNO injection; assay type: in vivo, mice; conditions: CNO 2.5 mg/kg, 90 min after injection
Experimental: Mice were anesthetized using a ketamine/xylazine mixture (ketamine 80 mg/kg; xylazine 15-20 mg/kg) diluted in sterile saline solution (NaCl 0.9%), before being fixed in the stereotactic frame (Stoelting, IL, US). The AAV8 virus, purchased from the vector core at the University of North Carolina, was used to induce Cre-dependent DREADD expression (AAV8-hSyn-DIO-hM3D(Gq)-mCherry), by injection of 0.7 μl into the right VTA region (anterior-posterior −3.2 mm; media-lateral 0.48 mm; dorsal-ventral 4.7 mm (mouse coordinates)). […] 30 days post surgery passed in order to assure the expression of DREADDs. […]
Validation of the virus injection site and evaluation of the DREADDs expression were performed by immunohistochemistry. […] The tissues were stained for TH with mouse anti-TH (1:200; Millipore) and the proportion of the DREADDs expressing cells (mCherry+) out of the total TH+ in the VTA was evaluated (1800 cells). […] The proportion of the c-fos+ cell nuclei from the total number of DREADDs-expressing cells was calculated. […] The quantification of double-positive cells was performed using Imaris Software.
Efficiency of the viral infection in the dopaminergic (TH+) VTA neurons was 58±4% (FIG. 6B). […] Neuronal activation was determined by C-fos staining, an immediate early activation marker. […]

[2] = tested on: solid melanoma (B16) tumor and Lewis lung carcinoma (LLC); assay: Tumor growth after VTA dopaminergic neuron activation; assay type: in vivo, mice
Experimental: For the expression of DREADDs, injected Cre-dependent adeno-associated virus (AAV) vector expressing DREADDs fused with red fluorescent protein mCherry, was injected into the VTA of tyrosine hydroxylase (TH)-Cre transgenic mice.
Then the mice were challenged with 500×10^3 LLC cells (Lewis Lung carcinoma Cells) or 200×10^3 B16 melanoma tumor cells (gently injected subcutaneously into the middle right flank of each animal).
28 days from the tumor cells injection a group of the tumor-bearing animals were euthanized to dissect the tumor tissue and check for metastasis (FIG. 12). The spleen bone marrow and tumors were isolated to characterize the changes in immune cells. The CyTOF was used to analyze the immune system as well as FACS analysis.

C[N+]1([O-])CCN(C2=Nc3cc(Cl)ccc3Nc3ccccc32)CC1 [CNO, clozapine-N-oxide]
number of CD11b+GFP+ cells in the peritoneum (GFP-expressing E. coli): increased number of CD11b+GFP+ cells | serum IL-1β level (IL-4 and IL-1β): significantly reduced | serum IL-4 level (IL-4 and IL-1β): significantly reduced | C-fos expression in DREADDs-infected cells ([1]; VTA-activated (hM3D(Gq)) mice): 42±0.5% | C-fos expression in virus infected cells ([1]; control mice (sham mCherry virus without DREADDs)): 3±1% | tumor weight / size (B16 melanoma) ([2]; CNO daily, two sessions of three days, Gq group vs control): Reduced tumor size | reduction in tumor size ([2]; VTA-activated vs control mice, B16 melanoma and LLC): over 40% | abundance of CD11b+Gr1+ MDSCs ([2]; VTA-activated vs control mice, spleen, bone marrow and tumor): significant reduction in the abundance; also recorded: reduced abundance of MDSCs
